{"source": "patent US9573873B2", "about": "“Catalytic method for dibenzocycloheptane synthesis and allocolchicinoid synthesis” (UNIVERSITY OF WINDSOR, priority 2014, dated 2017)", "origin": "cited, not measured here", "settings": "Phase 2 clinical testing; background statement", "data": [{"smiles": "COc1cc2c(c(OC)c1OC)-c1ccc(OP(=O)(O)O)cc1[C@@H](NC(C)=O)CC2", "note": "[ZD 6126, N-Acetylcolchicinol dihydrogen phosphate]", "values": [{"measurement": "cardiotoxicity", "result": "failed in Phase 2 clinical testing because of this cardiotoxicity"}]}]}
